Source: ChEMBL document CHEMBL5465560, “Selectivity Literature for EUbOPEN Chemogenomic Library” (2024)

Columns and labels:
[1] = target: 5-hydroxytryptamine receptor 5A (Homo sapiens) (UniProt P47898); assay: Selectivity interaction (GPCR panel (PDSP screen)) EUB0001079a HTR5A; details: at 10 µM
[2] = target: T1, 5-hydroxytryptamine receptor 1A (Homo sapiens) (UniProt P08908); assay: Selectivity interaction (Safety Panel 44tm (Eurofins)) EUB0000162b HTR1A; details: at 10 µM
T1 sequence (whole entry): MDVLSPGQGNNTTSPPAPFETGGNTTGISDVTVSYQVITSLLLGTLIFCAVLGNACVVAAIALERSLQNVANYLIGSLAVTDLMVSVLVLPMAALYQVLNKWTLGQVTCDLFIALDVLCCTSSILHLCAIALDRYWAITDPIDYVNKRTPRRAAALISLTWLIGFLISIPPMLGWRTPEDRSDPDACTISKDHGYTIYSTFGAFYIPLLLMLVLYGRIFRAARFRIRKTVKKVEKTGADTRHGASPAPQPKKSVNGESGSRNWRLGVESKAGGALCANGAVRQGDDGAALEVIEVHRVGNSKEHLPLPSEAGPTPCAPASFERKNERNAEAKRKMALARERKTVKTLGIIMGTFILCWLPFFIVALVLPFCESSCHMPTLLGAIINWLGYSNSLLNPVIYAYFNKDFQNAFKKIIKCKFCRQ

[3] = target: T2, Muscle, skeletal receptor tyrosine-protein kinase (Homo sapiens) (UniProt O15146); assay: Selectivity interaction (Upstate Kinase Profiler service (Millipore)) EUB0000056c MUSK; details: at 1 µM
T2 sequence (whole entry): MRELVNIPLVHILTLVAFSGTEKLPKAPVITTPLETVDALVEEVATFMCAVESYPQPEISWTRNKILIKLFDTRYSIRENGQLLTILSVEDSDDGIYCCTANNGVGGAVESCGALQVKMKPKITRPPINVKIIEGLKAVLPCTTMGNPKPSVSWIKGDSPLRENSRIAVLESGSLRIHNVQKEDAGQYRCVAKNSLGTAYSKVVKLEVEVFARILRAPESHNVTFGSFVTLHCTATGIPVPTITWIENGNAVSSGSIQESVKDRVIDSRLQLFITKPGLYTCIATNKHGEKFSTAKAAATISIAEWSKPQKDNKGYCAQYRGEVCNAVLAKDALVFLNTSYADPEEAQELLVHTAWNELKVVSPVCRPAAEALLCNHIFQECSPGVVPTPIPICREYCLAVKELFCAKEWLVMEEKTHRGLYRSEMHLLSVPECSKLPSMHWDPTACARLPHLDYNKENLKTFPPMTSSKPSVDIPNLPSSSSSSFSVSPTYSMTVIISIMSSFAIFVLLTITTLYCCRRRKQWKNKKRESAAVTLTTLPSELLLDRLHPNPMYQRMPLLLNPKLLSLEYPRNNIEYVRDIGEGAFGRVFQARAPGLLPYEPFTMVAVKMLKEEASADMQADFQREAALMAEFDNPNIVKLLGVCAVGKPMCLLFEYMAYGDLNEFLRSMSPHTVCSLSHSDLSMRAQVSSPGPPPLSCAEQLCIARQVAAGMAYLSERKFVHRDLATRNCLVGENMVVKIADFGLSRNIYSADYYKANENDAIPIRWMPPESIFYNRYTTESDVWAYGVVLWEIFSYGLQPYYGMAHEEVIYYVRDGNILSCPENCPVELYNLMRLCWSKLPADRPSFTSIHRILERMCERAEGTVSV

[4] = target: Rho-associated protein kinase 2 (Homo sapiens, UniProt O75116); assay: Selectivity interaction (KinomeScan (DiscoverX)) EUB0001619a ROCK2; details: at 1 µM
[5] = target: Cyclin-dependent kinase 11B (Homo sapiens) (UniProt P21127); assay: Selectivity interaction (KinomeScan (DiscoverX)) EUB0000607a CDK11B; details: at 10 µM
[6] = target: T3, Homeodomain-interacting protein kinase 4 (Homo sapiens) (UniProt Q8NE63); assay: Selectivity interaction (KinomeScan (DiscoverX)) EUB0000607a HIPK4; details: at 10 µM
T3 sequence (whole entry): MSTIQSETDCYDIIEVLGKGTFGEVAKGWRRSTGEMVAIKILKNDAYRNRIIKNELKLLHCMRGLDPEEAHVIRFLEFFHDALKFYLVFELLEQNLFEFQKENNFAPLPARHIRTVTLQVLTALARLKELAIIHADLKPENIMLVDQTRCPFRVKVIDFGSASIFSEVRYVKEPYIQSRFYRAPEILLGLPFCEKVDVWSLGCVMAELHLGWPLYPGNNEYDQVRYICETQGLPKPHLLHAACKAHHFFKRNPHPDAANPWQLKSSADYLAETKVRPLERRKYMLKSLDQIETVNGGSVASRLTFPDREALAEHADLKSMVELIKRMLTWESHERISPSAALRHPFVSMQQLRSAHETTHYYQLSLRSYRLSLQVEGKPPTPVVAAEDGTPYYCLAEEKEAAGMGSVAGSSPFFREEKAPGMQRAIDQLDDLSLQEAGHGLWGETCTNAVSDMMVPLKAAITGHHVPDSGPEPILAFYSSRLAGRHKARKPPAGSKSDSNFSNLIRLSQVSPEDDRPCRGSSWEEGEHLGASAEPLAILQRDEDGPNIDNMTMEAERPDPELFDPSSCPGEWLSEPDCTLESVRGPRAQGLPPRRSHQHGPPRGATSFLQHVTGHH

[7] = target: Tyrosine-protein kinase CSK (Homo sapiens) (UniProt P41240); assay: Selectivity interaction (ActivX KiNativ screen (kinase selectivity in THP-1 cell lysates)) EUB0000639a CSK; format: subcellular; details: lysate
[8] = target: Ribosomal protein S6 kinase alpha-6 (Homo sapiens, UniProt Q9UK32); assay: Selectivity interaction (Kinase panel (Invitrogen)) EUB0000639a RPS6KA6; details: at 200 nM
[9] = target: Serine/threonine-protein kinase mTOR (Homo sapiens, UniProt P42345); details: at 10 µM

Tyrosine-protein kinase CSK (Homo sapiens), sequence (P41240 2-450 limits assumed): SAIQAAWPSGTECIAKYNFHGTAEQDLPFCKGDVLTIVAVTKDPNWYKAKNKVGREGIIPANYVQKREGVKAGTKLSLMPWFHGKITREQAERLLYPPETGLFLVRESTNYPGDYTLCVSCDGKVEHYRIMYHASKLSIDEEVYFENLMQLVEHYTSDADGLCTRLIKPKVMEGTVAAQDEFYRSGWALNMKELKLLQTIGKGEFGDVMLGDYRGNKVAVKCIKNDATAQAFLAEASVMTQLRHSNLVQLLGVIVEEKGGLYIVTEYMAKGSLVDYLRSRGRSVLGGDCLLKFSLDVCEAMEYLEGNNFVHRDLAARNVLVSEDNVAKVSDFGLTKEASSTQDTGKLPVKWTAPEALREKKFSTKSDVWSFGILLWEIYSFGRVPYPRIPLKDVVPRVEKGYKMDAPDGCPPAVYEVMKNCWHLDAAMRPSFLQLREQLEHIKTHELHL
5-hydroxytryptamine receptor 5A (Homo sapiens), sequence (P47898 whole entry): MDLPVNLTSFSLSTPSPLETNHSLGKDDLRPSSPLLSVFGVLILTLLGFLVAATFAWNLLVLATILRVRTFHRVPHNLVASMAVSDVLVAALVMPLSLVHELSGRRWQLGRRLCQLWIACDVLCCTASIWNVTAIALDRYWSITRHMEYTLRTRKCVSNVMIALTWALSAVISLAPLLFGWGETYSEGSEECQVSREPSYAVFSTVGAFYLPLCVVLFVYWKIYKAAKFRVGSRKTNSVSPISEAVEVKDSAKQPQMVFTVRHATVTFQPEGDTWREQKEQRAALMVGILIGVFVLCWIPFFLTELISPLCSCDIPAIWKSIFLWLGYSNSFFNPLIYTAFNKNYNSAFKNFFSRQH
Ribosomal protein S6 kinase alpha-6, sequence (Q9UK32 whole entry): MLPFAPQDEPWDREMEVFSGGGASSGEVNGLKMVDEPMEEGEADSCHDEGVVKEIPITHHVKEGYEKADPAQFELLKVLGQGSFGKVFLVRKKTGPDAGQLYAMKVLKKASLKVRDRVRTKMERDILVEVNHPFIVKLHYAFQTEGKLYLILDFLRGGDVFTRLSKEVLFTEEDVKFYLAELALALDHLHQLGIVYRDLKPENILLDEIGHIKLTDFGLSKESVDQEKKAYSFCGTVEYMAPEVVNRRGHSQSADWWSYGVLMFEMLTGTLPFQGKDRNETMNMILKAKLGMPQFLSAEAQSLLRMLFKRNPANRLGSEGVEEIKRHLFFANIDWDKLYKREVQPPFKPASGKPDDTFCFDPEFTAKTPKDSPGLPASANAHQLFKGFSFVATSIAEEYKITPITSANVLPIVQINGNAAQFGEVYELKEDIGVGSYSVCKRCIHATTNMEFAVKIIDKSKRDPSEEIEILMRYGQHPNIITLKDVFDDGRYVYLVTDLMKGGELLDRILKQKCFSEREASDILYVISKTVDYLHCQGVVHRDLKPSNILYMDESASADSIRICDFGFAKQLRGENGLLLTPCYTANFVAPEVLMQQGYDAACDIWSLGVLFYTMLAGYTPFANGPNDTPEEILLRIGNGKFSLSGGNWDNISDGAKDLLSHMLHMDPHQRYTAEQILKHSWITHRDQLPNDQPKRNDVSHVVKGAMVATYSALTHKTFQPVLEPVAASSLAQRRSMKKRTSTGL
Cyclin-dependent kinase 11B (Homo sapiens), sequence (P21127 whole entry): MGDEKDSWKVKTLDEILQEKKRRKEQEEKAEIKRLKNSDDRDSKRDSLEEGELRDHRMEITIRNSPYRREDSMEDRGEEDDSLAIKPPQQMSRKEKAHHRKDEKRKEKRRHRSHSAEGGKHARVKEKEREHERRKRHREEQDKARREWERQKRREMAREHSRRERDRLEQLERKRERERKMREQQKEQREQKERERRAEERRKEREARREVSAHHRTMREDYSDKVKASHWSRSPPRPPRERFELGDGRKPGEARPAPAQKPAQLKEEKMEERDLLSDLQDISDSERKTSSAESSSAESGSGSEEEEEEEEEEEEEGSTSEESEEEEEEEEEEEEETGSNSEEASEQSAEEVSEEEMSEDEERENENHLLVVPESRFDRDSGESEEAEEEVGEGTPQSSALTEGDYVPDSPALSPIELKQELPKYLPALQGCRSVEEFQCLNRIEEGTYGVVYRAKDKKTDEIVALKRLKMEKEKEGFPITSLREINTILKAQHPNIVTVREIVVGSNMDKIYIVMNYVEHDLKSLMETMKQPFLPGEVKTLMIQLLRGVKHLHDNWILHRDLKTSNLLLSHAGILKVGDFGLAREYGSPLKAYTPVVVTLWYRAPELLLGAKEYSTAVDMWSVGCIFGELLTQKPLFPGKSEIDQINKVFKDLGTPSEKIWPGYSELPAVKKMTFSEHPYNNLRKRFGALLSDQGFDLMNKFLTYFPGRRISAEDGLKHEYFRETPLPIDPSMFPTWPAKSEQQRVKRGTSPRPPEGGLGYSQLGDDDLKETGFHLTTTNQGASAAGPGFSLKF
Rho-associated protein kinase 2, sequence (O75116 whole entry, looked up): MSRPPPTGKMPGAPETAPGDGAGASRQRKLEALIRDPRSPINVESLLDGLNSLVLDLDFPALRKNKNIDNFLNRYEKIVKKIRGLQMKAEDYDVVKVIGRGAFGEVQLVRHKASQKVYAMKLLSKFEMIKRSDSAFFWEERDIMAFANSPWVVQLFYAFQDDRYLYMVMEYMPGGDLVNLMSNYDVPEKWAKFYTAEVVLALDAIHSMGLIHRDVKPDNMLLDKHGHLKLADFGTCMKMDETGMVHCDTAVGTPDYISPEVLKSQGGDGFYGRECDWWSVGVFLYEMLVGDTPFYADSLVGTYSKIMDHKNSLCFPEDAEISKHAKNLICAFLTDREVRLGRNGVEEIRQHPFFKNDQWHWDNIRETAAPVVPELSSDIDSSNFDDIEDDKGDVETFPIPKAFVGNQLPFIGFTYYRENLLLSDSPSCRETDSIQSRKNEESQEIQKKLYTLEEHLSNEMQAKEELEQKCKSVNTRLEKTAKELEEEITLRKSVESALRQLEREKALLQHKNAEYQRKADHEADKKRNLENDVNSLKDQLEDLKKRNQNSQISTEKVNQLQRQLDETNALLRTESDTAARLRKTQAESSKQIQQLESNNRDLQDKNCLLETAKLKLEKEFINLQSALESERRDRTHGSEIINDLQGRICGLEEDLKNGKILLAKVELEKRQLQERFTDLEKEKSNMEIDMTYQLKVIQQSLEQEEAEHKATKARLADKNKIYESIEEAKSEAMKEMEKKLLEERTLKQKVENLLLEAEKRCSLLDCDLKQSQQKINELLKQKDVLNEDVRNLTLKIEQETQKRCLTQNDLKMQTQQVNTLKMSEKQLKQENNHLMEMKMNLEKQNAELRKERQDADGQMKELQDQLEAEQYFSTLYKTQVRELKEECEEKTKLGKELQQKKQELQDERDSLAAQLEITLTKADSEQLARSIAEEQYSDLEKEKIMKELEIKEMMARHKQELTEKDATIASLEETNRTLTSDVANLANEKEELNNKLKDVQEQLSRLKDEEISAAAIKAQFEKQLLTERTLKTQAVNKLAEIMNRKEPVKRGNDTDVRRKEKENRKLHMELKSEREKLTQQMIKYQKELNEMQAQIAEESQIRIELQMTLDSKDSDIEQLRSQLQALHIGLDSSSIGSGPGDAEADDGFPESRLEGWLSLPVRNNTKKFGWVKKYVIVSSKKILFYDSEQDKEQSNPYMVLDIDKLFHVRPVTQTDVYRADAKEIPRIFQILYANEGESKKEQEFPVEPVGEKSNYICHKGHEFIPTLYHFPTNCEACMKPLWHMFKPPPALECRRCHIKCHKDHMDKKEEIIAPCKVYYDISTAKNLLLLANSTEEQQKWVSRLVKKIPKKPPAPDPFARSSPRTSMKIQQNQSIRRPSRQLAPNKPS

## Nc1cnc(N2CCc3cc(S(=O)(=O)Nc4c(F)cc(Cl)cc4F)cc(N4CCCC4=O)c32)nc1 [TP-020n]
[1]
  % of inhibition: -4.87%

## CN(C)C(=O)Cn1cc(-c2ccc(-c3cncc4ccccc34)cc2)cn1
[2]
  % of control: 50%

## Cc1ccc(-c2ccc3c(ccc4sc5c(c43)NC[C@@H](C)NC5=O)n2)cn1
[3]
  % of inhibition: -7%

## N#Cc1cccc(-c2c[nH]c3ncnc(N4CCOCC4)c23)c1
[4]
  % of control: 75%

## CNC(=O)Nc1ccc(-c2nc(N3CC4CCC(C3)O4)c3cnn(C4CCC5(CC4)OCCO5)c3n2)cc1
[5]
  % of control: 100%
[6]
  % of control: 100%

## CC[C@@H]1[C@H](F)C(=O)N[C@@H]1COc1nccc2cc(C(N)=O)c(OC)cc12 [ZIMLOVISERTIB]
[7]; at 0.01 µM
  % of inhibition: 4.3%
[7]; at 0.04 µM
  % of inhibition: -0.3%
[7]; at 0.2 µM
  % of inhibition: -3.8%
[7]; at 1 µM
  % of inhibition: 10.3%
[7]; at 5 µM
  % of inhibition: -8.3%
[8]
  % of inhibition: -1.29%

## CCC(=O)N1CCN(c2ccc(-n3c(=O)ccc4cnc5ccc(-c6cnc7ccccc7c6)cc5c43)cc2C(F)(F)F)CC1
[9]
  % of control: 0%
